Test results from article PMC8795987, “Time-dependent inhibition of CYP3A4-mediated midazolam metabolism by macrolide antibiotics in CYP3A4 genetic variants: Comparison with testosterone metabolism” (International Journal of Clinical Pharmacology and …, 2021).

Assays:
[1] = system: CYP3A4 genetic variants; assay: Static model estimate of residual enzyme activity and midazolam AUC ratio in CYP3A4 genetic variants; parameters: species or system human; conditions: all genetic variants; increase in AUC of 2- to < 5-fold; estimated
Protocol: (§1) Based on the static model, residual enzyme activity (ε) under the steady state is determined by the inactivation rate by the MBI inhibitor (k inact ([I])) and the turnover rate in the absence of inhibitor (k deg), and calculated by using the following Equation 2.

[2] = Clinical plasma concentration; format: in vivo, human; conditions: for Cmax,u (maximum plasma unbound concentration in the clinical settings): Cmax × fu; for Cmax: oral, human plasma, converted from μg/mL
[3] = system: CYP3A4 WT, .2, .7, .16, .18; assay: Mechanism-based inhibition of midazolam 1′-hydroxylation, results stated across the five variants; format: biochemical, human; conditions: human, pH 7.4, probe midazolam 2 µM (1′-hydroxylation), range over the five variants
Protocol: (§2) Next, 4 µM midazolam solution (final concentration at incubation: 2 µM) together with NADPH-generating system solution and 300 mM K^+ phosphate buffer containing 0.3 mM EDTA were added to start the metabolic reaction for 20 minutes at 37 °C. The reaction was terminated by the addition of 450 µL of ice-cold methanol, followed by 50 µL of 0.1 µM nitrazepam as an internal standard. The mixture was then centrifuged at 3,500 ×g for 20 minutes at 4 °C, and the concentration of 1′-hydroxymidazolam in the supernatant was determined using HPLC-ultraviolet (UV) method described below.
(§3) The HPLC system consisted of a pump ([…]; Shimadzu, Kyoto, Japan), an UV-detector SPD-10AD (Shimadzu), and an octadecylsilyl column (Cosmosil, 5C18-MS-II, 4.6×250 mm, ODS; Nacalai Tesque, Kyoto, Japan). The mobile phase consisted of 50% methanol (v/v) and was pumped at a rate of 1.5 mL/min. The UV wavelength was set at 245 nm.
as §1

[4] = system: five CYP3A4 genetic variants (Wt, .2, .7, .16, .18); assay: as above; format: biochemical, human; conditions: all CYP3A4 variants; preincubation with NADPH-generating system
Protocol: as §2, §3, §1

[5] = target: T1, CYP3A4.7 (Homo sapiens, UniProt P08684, G56D); assay: Mechanism-based inhibition of midazolam 1′-hydroxylation by recombinant CYP3A4.7; format: biochemical; conditions: substrate midazolam, geometric mean (–1S.D. ~ +1S.D.), n = 5
T1 construct: made in house; host or cells: Escherichia coli
T1 sequence (P08684 whole entry G56D): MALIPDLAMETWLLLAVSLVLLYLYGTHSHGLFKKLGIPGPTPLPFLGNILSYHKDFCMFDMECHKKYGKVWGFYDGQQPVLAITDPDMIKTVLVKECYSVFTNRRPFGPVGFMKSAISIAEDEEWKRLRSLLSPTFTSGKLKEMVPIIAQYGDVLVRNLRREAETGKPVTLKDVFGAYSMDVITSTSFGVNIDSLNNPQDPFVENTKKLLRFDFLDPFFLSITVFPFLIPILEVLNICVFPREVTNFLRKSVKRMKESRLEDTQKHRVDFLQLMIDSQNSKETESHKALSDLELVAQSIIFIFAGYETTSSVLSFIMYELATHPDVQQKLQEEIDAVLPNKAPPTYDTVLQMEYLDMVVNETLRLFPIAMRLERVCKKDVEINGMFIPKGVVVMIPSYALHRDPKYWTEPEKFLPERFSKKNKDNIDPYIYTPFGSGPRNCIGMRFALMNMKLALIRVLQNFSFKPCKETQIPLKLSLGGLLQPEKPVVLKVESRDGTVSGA
Protocol: (§4) 1′-Hydroxymidazolam was purchased from Biosciences-Discovery Labware (Tokyo, Japan). The membrane fraction of CYP3A4 (WT, .2, .7, .16, .18) expressed by Escherichia coli were prepared according to our previously reported method. All other chemicals and reagents of analytical and high-performance liquid chromatography (HPLC) grade were obtained from commercial sources.
as §2, §3

[6] = erythromycin; cited from earlier work
[7] = target: T2, CYP3A4.16 (Homo sapiens, UniProt P08684, T185S); assay: Mechanism-based inhibition of midazolam 1′-hydroxylation by recombinant CYP3A4.16; format: biochemical; conditions: substrate midazolam, geometric mean (–1S.D. ~ +1S.D.), n = 5
T2 construct: made in house; host or cells: Escherichia coli
T2 sequence (P08684 whole entry T185S): as the sequence (P08684 whole entry G56D) above, with D56G, T185S counted along it
Protocol: as §4, §2, §3

[8] = target: T3, CYP3A4.2 (Homo sapiens, UniProt P08684, S222P); assay: Mechanism-based inhibition of midazolam 1′-hydroxylation by recombinant CYP3A4.2; format: biochemical; conditions: substrate midazolam, geometric mean (–1S.D. ~ +1S.D.), n = 5
T3 construct: made in house; host or cells: Escherichia coli
T3 sequence (P08684 whole entry S222P): as the sequence (P08684 whole entry G56D) above, with D56G, S222P counted along it
Protocol: as §4, §2, §3

[9] = target: T4, CYP3A4 WT (Homo sapiens, UniProt P08684); assay: Mechanism-based inhibition of midazolam 1′-hydroxylation by recombinant CYP3A4 WT; format: biochemical; conditions: substrate midazolam, geometric mean (–1S.D. ~ +1S.D.), n = 5, read-out: K I
T4 construct: made in house; host or cells: Escherichia coli
T4 sequence (P08684 whole entry): as the sequence (P08684 whole entry G56D) above, with D56G counted along it
Protocol: as §4, §2, §3

[10] = system: CYP3A; conditions: cited from earlier work

CC[C@H]1OC(=O)[C@H](C)[C@@H](O[C@H]2C[C@@](C)(OC)[C@@H](O)[C@H](C)O2)[C@H](C)[C@@H](O[C@@H]2O[C@H](C)C[C@H](N(C)C)[C@H]2O)[C@](C)(OC)C[C@@H](C)C(=O)[C@H](C)[C@@H](O)[C@]1(C)O [Clarithromycin]
extent of DDI category based on the FDA guideline [1]: moderate
Cmax,u (maximum plasma unbound concentration in the clinical settings) [2]: 775 nM
Cmax [2]: 1550 nM
Ki ([3]; in vitro data in the present study, substrate midazolam, read-out: KI (range among variants)): 689 to 2690 nM
KI (inactivation) ([3]; product of K I and fu,mic, read-out: KI,u (unbound concentration of inhibitor that confers half-maximal rate of inactivation)): 590 to 2310 nM
inhibition of 1′-hydroxylation of midazolam by all CYP3A4 variants [4]: time-dependent manner

CC[C@H]1OC(=O)[C@H](C)[C@@H](O[C@H]2C[C@@](C)(OC)[C@@H](O)[C@H](C)O2)[C@H](C)[C@@H](O[C@@H]2O[C@H](C)C[C@H](N(C)C)[C@H]2O)[C@](C)(O)C[C@@H](C)C(=O)[C@H](C)[C@@H](O)[C@]1(C)O [Erythromycin]
Ki [5]: 512 nM
fu,mic (estimated unbound fraction in microsomal preparation) [6]: 0.857
Cmax,u (maximum plasma unbound concentration in the clinical settings) [2]: 721 nM
Cmax [2]: 1120 nM
Ki [7]: 1820 nM
Ki [8]: 1140 nM
KI (inactivator concentration giving half-maximal inactivation rate) [9]: 677 nM

Cc1ncc2n1-c1ccc(Cl)cc1C(c1ccccc1F)=NC2 [midazolam, Midazolam]
fm,CYP3A (contribution of 1-hydroxylation by CYP3A to overall systemic elimination) [10]: 98%
